Measured values reported in publication PMC9947975, “Design, Synthesis, and Biological Evaluation Studies of Novel Naphthalene-Chalcone Hybrids As Antimicrobial, Anticandidal, Anticancer, and VEGFR-2 Inhibitors” (ACS Omega, 2023).
Converted amounts (≈) assume the structure as drawn.

What was measured:
[1] = system: S. epidermidis (ATCC 12228); assay: Antibacterial activity, MIC50 by resazurin fluorometric measurement; format: cell-based, Staphylococcus epidermidis; settings: Staphylococcus epidermidis, ATCC12228, means of triplicate assays; read-out: MIC50 S. epidermis
Procedure: (§1) Obtained compounds (2a–2j) were evaluated for antibacterial activity against Escherichia coli (E. coli) (ATCC 25922), Pseudomonas aeruginosa (P. aeruginosa) (ATCC 27853), […] (E. faecalis) (ATCC 2942), Bacillus subtilis (B. subtilis) (ATCC 6051), Staphylococcus aureus (S. aureus) (ATCC 29213), and Staphylococcus epidermidis (S. epidermidis) (ATCC 12228). MIC50 values were determined via fluorometric measurements, using resazurin solution.[13] Azithromycin was used as a standard drug in the antibacterial activity test.
(§2) The antimicrobial activity of obtained derivatives (2a–2j) was screened on six bacterial and three fungal strains according to the standard procedure of CLSI[20] as described in the previous study.[21] The antibacterial activities of the obtained compounds were screened against B. subtilis (ATCC 6051), E. coli (ATCC 25922), E. faecalis (ATCC 2942), P. aeruginosa (ATCC 27853), S. aureus (ATCC 29213), and S. epidermidis (ATCC 12228). The obtained compounds were evaluated for anticandidal activity against C. albicans (ATCC 24433), C. krusei (ATCC 6258), and C. parapsilopsis (ATCC 22019). For antibacterial activity, azithromycin was utilized as a reference drug, whereas voriconazole and fluconazole were used for anticandidal activity.

E. coli (ATCC 25922) = assay: as above; format: cell-based; settings: Escherichia coli, ATCC25922; means of triplicate assays
Procedure: as §1, §2

B. subtilis (ATCC 6051) = assay: as above; format: cell-based; settings: Bacillus subtilis, ATCC6051; means of triplicate assays
Procedure: as §1, §2

[2] = system: P. aeruginosa (ATCC 27853); assay: as above; format: cell-based; settings: Pseudomonas aeruginosa, ATCC27853; means of triplicate assays
Procedure: as §1, §2

C. krusei (ATCC 6258) = assay: Anticandidal activity, MIC50 by resazurin fluorometric measurement; format: cell-based, Candida krusei; settings: Pichia kudriavzevii, ATCC6258, means of triplicate assays
Procedure: (§3) Obtained compounds (2a–2j) were evaluated for anticandidal activity against Candida albicans (C. albicans) (ATCC 24433), Candida krusei (C. krusei) (ATCC 6258), and Candida parapsilopsis (C. parapsilopsis) (ATCC 22019). MIC50 values were determined via fluorometric measurements, using resazurin solution.[13] Voriconazole and fluconazole were used as a standard drug in the anticandidal activity test. […] In general, it is seen that the 2-methoxyethyl substituent increases the anticandidal activity.
as §2

S. aureus (ATCC 29213) = assay: Antibacterial activity, MIC50 by resazurin fluorometric measurement; format: cell-based, Staphylococcus aureus; settings: Staphylococcus aureus, ATCC29213, means of triplicate assays
Procedure: as §1, §2

E. faecalis (ATCC 2942) = assay: as above; format: cell-based, Enterococcus faecalis; settings: for MIC50: Enterococcus faecalis, ATCC2942, means of triplicate assays
Procedure: as §1, §2

HepG2 cell line = assay: MTT cytotoxicity test; format: cell-based; settings: Homo sapiens, 24-h treatment, means of quartet assays ± SEM
Procedure: (§4) The MTT test was performed using 3 different cell lines for calculated IC50 values of obtained compounds. […] For this purpose, the cytotoxic effects of the compounds against the healthy mouse fibroblast cell (NIH3T3) were investigated.
(§5) The 3-(4,5-dimethylthiazol-2-yl)-2,5-diphenyltetrazolium salt reduction method, or MTT assay, is used to measure the metabolic activity of live cells. […] Doxorubicin is used as a therapeutic drug. MTT assays were carried out as previously explained.[19]

A549 cell line = assay: MTT cytotoxicity test; format: cell-based; settings: Homo sapiens, A549, 24 h, MTT, 24-h treatment, means of quartet assays ± SEM
Procedure: as §4, §5

[3] = system: healthy mouse fibroblast cell (NIH3T3); assay: MTT cytotoxicity test on healthy cells; format: cell-based; settings: 24-h treatment, means of quartet assays ± SEM
Procedure: as §4, §5

C. albicans (ATCC 24433) = assay: Anticandidal activity, MIC50 by resazurin fluorometric measurement; format: cell-based, Candida albicans; settings: Candida albicans, ATCC24433, means of triplicate assays
Procedure: as §3, §2

[4] = system: C. parapsilopsis (ATCC 22019); assay: as above; format: cell-based, Candida parapsilopsis; settings: Candida, ATCC22019; means of triplicate assays
Procedure: as §3, §2

Row | Compound | MIC50 [1] [µg/mL] | MIC50 (E. coli (ATCC 25922)) [µg/mL] | MIC50 (B. subtilis (ATCC 6051)) [µg/mL] | MIC50 [2] [µg/mL] | MIC50 (C. krusei (ATCC 6258)) [µg/mL] | MIC50 (S. aureus (ATCC 29213)) [µg/mL] | MIC50 (E. faecalis (ATCC 2942)) [µg/mL] | IC50 (HepG2 cell line) [µM] | IC50 (A549 cell line) [µM] | IC50 [3] [µM] | melting point [°C] | MIC50 (C. albicans (ATCC 24433)) [µg/mL] | MIC50 [4] [µg/mL] | MIC50 E. faecalis (E. faecalis (ATCC 2942); means of triplicate assays) [µg/mL]
1 | CN1CCN(c2ccc(C(=O)C=Cc3cccc4ccccc34)cc2)CC1 [2a, 1-(4-(4-Methylpiperazin-1-yl)phenyl)-3-(naphthalen-1-yl)prop-2-en-1-one] | 62.5 (≈ 175 µM) | > 100 | > 100 | 62.5 (≈ 175 µM) | 62.5 (≈ 175 µM) | > 100 | 31.3 (≈ 87.8 µM) | > 100 | > 100 | 61.9 ± 1.42 | 150.2 to 152.1 | 31.3 (≈ 87.8 µM) | 62.5 (≈ 175 µM) | 
2 | CCN1CCN(c2ccc(C(=O)C=Cc3cccc4ccccc34)cc2)CC1 [2b, 1-(4-(4-Ethylpiperazin-1-yl)phenyl)-3-(naphthalen-1-yl)prop-2-en-1-one] | 31.3 (≈ 84.5 µM) | > 100 | > 100 | 62.5 (≈ 169 µM) | 62.5 (≈ 169 µM) | 31.3 (≈ 84.5 µM) | 31.3 (≈ 84.5 µM) | 45.8 ± 8.4 | > 100 | 22.9 ± 0.76 | 164.6 to 166.1 | 15.6 (≈ 42.1 µM) | > 100 | 
3 | CC(C)N1CCN(c2ccc(C(=O)C=Cc3cccc4ccccc34)cc2)CC1 [2c, 1-(4-(4-Isopropylpiperazin-1-yl)phenyl)-3-(naphthalen-1-yl)prop-2-en-1-one] | 31.3 (≈ 81.4 µM) | > 100 | > 100 | 62.5 (≈ 163 µM) | 62.5 (≈ 163 µM) | 62.5 (≈ 163 µM) | 31.3 (≈ 81.4 µM) | 96.1 ± 5.46 | 34.3 ± 5.56 | > 100 | 146.8 to 147.5 | 15.6 (≈ 40.6 µM) | > 100 | 
4 | C=CCN1CCN(c2ccc(C(=O)C=Cc3cccc4ccccc34)cc2)CC1 [2d, 1-(4-(4-Allylpiperazin-1-yl)phenyl)-3-(naphthalen-1-yl)prop-2-en-1-one] | 31.3 (≈ 81.8 µM) | > 100 | > 100 | 62.5 (≈ 163 µM) | 62.5 (≈ 163 µM) | > 100 | 15.6 (≈ 40.8 µM) | 45.1 ± 8.12 | 71.1 ± 3.08 | 19.8 ± 1.31 | 120.2 to 121.9 | 31.3 (≈ 81.8 µM) | > 100 | 15.7 (≈ 41 µM)
5 | COCCN1CCN(c2ccc(C(=O)C=Cc3cccc4ccccc34)cc2)CC1 [2e, 1-(4-(4-(2-Methoxyethyl)piperazin-1-yl)phenyl)-3-(naphthalen-1-yl)prop-2-en-1-one] | 31.3 (≈ 78.1 µM) | > 100 | > 100 | 62.5 (≈ 156 µM) | 62.5 (≈ 156 µM) | 62.5 (≈ 156 µM) | 31.3 (≈ 78.1 µM) | 45.5 ± 2.5 | 20.6 ± 0.52 | 19.8 ± 0.81 | 136.2 to 137.8 | 15.6 (≈ 38.9 µM) | > 100 | 
6 | CN1CCN(c2ccc(C(=O)C=Cc3ccc4ccccc4c3)cc2)CC1 [2f, 1-(4-(4-Methylpiperazin-1-yl)phenyl)-3-(naphthalen-2-yl)prop-2-en-1-one] | 15.6 (≈ 43.8 µM) | > 100 | > 100 | > 100 | > 100 | 31.3 (≈ 87.8 µM) | 31.3 (≈ 87.8 µM) | 29.7 ± 0.79 | 35.7 ± 0.37 | 25.6 ± 0.26 | 204.5 to 206.2 | 62.5 (≈ 175 µM) | > 100 | 
